Results taken from US9597280B2, “Cosmetic compositions comprising microalgal oil” (TerraVia Holdings, Inc., priority 2013, dated 2017).

Experiments:
MatTek's EpiDerm tissue [1] = assay: Thymine dimer formation in EpiDerm skin tissue model after UVB exposure; format: cell-based, human; conditions: positive control, topical 24 hours after UVB 300 mJ/cm2; mean ± standard deviation; significantly different from Untreated (p < 0.05)
Procedure: Oil was extracted from heterotrophic ally cultivated Chlorella protothecoides followed by refining, bleaching and deodorization. The oil was tested for its ability to prevent thymine dimerization in a skin tissue model upon exposure to UVB (ultraviolet light of the B type). The testing system used for this assay was MatTek's EpiDerm tissue, a skin model that consists of normal human-derived epidermal keratinocytes cultured to form a multilayered, highly differentiated model of the human epidermis. For this study, the tissues were exposed to UVB (300 mJ/cm2) and then treated topically for 24 hours with the test material. Following the treatment the DNA was extracted from the EpiDerm tissues and assayed for thymine dimer content. […] The primary antibody was then detected using a secondary antibody conjugated to a fluorescent dye. […] With this method, the fluorescence intensity of each sample is proportional to the amount of the thymine dimers present in the sample. […] UVB lamp intensity was measured using a UVX radiometer with a probe specific for UVB (detects 260-360 nm, max absorbance at 310 nm, calibrated at 310 nm) to determine exposure times required for the appropriate UVB dose. […] Extracted DNA was quantified via a fluorometric assay. […]

MatTek's EpiDerm tissue [2] = assay: MTT (viability) assay in EpiDerm skin tissue model after UVB exposure; format: cell-based, human; conditions: positive control, topical 24 hours after UVB 300 mJ/cm2; mean ± standard deviation; significantly different from Untreated (p < 0.05)
From the text: Oil was extracted from heterotrophically cultivated Chlorella protothecoides followed by refining, bleaching and deodorization. A skin tissue model was used to evaluate changes in tissue viability after exposure to UVB radiation. The testing system used for this assay was MatTek's EpiDerm tissue, a skin model that consists of normal human-derived epidermal keratinocytes cultured to form a multilayered, highly differentiated model of the human epidermis. For this study, the tissues were exposed to UVB (300 mJ/cm2) and then treated topically for 24 hours with the test material. Following the treatment tissue changes in tissue viability were determined using an MTT assay. […] Reduction of MTT by mitochondria in viable cells results in the formation of insoluble purple formazin crystals that are extracted from the cells with isopropanol and quantified spectrophotometrically. […] UVB lamp intensity was measured using a UVX radiometer with a probe specific for UVB (detects 260-360 nm, max absorbance at 310 nm, calibrated at 310 nm) to determine exposure times required for the appropriate UVB dose. […] After the extraction, a 200 μl sample of the isopropanol/MTT mixture was transferred to a 96-well plate and the absorbance of the sample was read at 540 nm with a plate reader using 200 μl of isopropanol as the blank. […] Values are expressed as means±standard deviation.

**Q.** For `Cc1c(C)c2c(c(C)c1O)CCC(C)(C(=O)O)O2` (centres unmarked) [Trolox, 6-hydroxy-2,5,7,8-tetramethylchroman-2-carboxylic acid], which “Thymine Dimer Formation, Corrected RFU” value (MatTek's EpiDerm tissue [1]) is on record?
**A.** 5198 ± 513 RFU

**Q.** And the “Viability (Percent of Non-UVB Exposed)” value (MatTek's EpiDerm tissue [2])?
**A.** 100 ± 1.3% of Non-UVB Exposed
